Measured values: US20250041283A1, “COCRYSTAL OF AN IDH1 INHIBITOR, PROCESS OF PREPARATION THEREOF, PHARMACEUTICAL COMPOSITIONS THEREOF, AND METHODS OF TREATMENT INVOLVING THE SAME” (Servier Pharmaceuticals LLC, priority 2023, published 2025)

Experiments:
[1] = Physicochemical stability of cocrystal powder stressed at different temperatures and humidities (XRPD); conditions: 6 weeks and 12 months at 25° C./60% RH, 25° C./90% RH, 40° C./75% RH and 50° C.
Protocol: (§1) FIG. 5 depicts the overlay of the X-ray diffraction spectra of the glutaric acid cocrystal type A of Compound 1 stressed 6 weeks at 25° C./60% RH, 25° C./90% RH, 40° C./75% RH and 50° C. with the theoretical X-ray diffraction spectrum of the said cocrystal (calculated form the single crystal structure).
as §1, with “FIG. 6” for “FIG. 5”, “stressed 12 months” for “stressed 6 weeks”
The XRPD patterns were recorded from 3.5° 2q to 35° 2q using an Empyrean diffractometer from Panalytical operating in the transmission mode with CuKα radiation (l=1.5418 Å) at 45 kV and 40 mA and with a 0.013° 2q step size for 15 minutes (list of examples).

[2] = Solubility in biorelevant media (SGF, FASSIF); type: physicochemical; conditions: thermodynamic from solid, 37° C., after 1 h
[3] = Sorption/desorption isotherm 0% RH to 90% RH at 25° C.; type: physicochemical
Protocol: The sorption isotherm of the cocrystal was recorded between 0% RH and 90% RH at 25° C. (see FIG. 7).
The sorption/desorption isotherm of the cocrystal was recorded using the following method: • Equilibrate the sample at 0% RH until the dm/dt was below 0.0005% for 30 consecutive minutes or until maximum 24 hours. • Increase of the relative humidity up to 90% RH with step every 10% RH. Each step was maintained until the dm/dt was below 0.0005% for 30 consecutive minutes or until maximum 24 hours. • Decrease of the relative humidity up to 0% RH with step every 10% RH. Each step was maintained until the dm/dt was below 0.0005% for 30 consecutive minutes or until maximum 24 hours.

[4] = Tablets by direct compression: hardness and tensile strength; type: physicochemical; conditions: 50 mg tablets, 0.5% magnesium stearate
Protocol: Tablets were prepared by direct compression using a STYL'ONE EVO compaction simulator from Medelpharm Instruments.
Compound 1, either in Form 1, Form T11 or as a glutaric acid cocrystal type A was lubricated by 0.5% magnesium stearate before compression. 99.5% of Compound 1 and 0.5% of magnesium stearate (e.g., 4.975 g of Compound 1 and 0.025 g of magnesium stearate) were used. Compound 1 was weighed, and magnesium stearate was sifted on a 0.4 mm sieve and added progressively to Compound 1. The mixture was homogenized using a Turbula T2F blender for 5 minutes.
50 mg tablets were prepared using a STYL'ONE EVO compaction simulator applying a compressing force of 2.5 kN or 5.0 kN.

[5] = Four weeks stability study of lubricated mixtures and tablets (XRPD); type: physicochemical; conditions: 4 weeks, open vials, 25° C./60% RH and 40° C./75% RH
Protocol: Four weeks stability of samples of lubricated mixtures of Example 3B and 5B and tablets of Example 6 prepared from cocrystal of Example 1 was tested according to the following protocol.
All the samples were stored 4 weeks in controlled temperature and humidity chambers in open vials at 25° C./60% RH or 40° C./75% RH. The XPRD analyses were performed extemporaneously in order to be representative of all the samples at temperature and humidity equilibria.
Tablets of Cocrystal+AQ/AV or AV (from Example 6) were gently grinded leading a powder suitable for XRPD analysis. Lubricated mixtures from Examples 3B and 5B were analyzed without grinding. The XRPD patterns were recorded from 3.5° 2q to 35° 2q using an Empyrean diffractometer from Panalytical operating in the transmission mode with CuKα radiation (l=1.5418 Å) at 45 kV and 40 mA and with a 0.013° 2q step size for 30 minutes.

[6] = Flowability of lubricated mixtures (European Pharmacopeia); type: physicochemical
Protocol: The flowability of the lubricated mixture previously prepared was measured according to the Guidelines of European Pharmacopeia.

[7] = Comparative rat PK study, oral capsules; type: in vivo; conditions: male Wistar rats, 24 mg/kg
Protocol: The objective of this study was to compare the pharmacokinetics (PK) of four oral (PO) dosage forms of Compound 1 in male Wistar rats (4 groups, N=3/group). Lubricated mixtures prepared from Examples 5A (prepared from Form 1 and Form T11) and 5B (prepared from cocrystal of Example 1) and amorphous solid dispersion of Compound 1 obtained through spray drying as in commercial batches were manually and individually filled in capsules (Size 9).
The administered dose was 24 mg/kg, considering that each rat's weight was around 250 g.
Methods: Animals were fasted approximately 6 hours before dosing and fed 3 at 4 hours post-dose. All animals had free access to water. Compound 1 dose were given to rats via oral gavage (2 capsules/one single administration). Blood samples were collected via the saphenous vein into test tubes containing potassium ethylenediaminetetraacetic acid (K2EDTA) from all animals at 0.25, 0.5, 1, 2, 4, 8, 24, 48 and 72 hours post-dose. Blood sample were centrifuged at 2000 g for 5 minutes to obtain plasma samples. Compound 1 concentration in plasma samples was quantified using a liquid chromatography with tandem mass spectrometry (LC-MS/MS) method. The lower limit of quantification was 1.00 ng/mL with a sample volume of 20 μL.

[8] = compressive force applied 2.5 kN
[9] = compressive force applied 5.0 kN
[10] = lubricated mixtures of Examples 3A and 3B

Physicochemical stability of the powder [1]: physicochemically stable
solubility at 1 h ([2]; simulated gastric fluid, SGF): 0.008 mg/mL
solubility at 1 h ([2]; FASSIF): 0.013 mg/mL
Stability in humidity conditions (sorption isotherm) [3]: stable
Tablet hardness [4, 8]: 41.6 N
Tensile strength [4, 8]: 2.562 MPa
Tablet hardness [4, 9]: 46.4 N
Tensile strength [4, 9]: 2.998 MPa
Stability of the cocrystal in lubricated mixtures and tablets (AQ/AV or AV) [5]: perfectly stable
Carr's Index [6, 10]: 24%
Carr's Index (flowability) rating [6, 10]: Adequate
Flowability [6, 10]: suitable flowability
Hausner ratio [6, 10]: 1.32
Hausner ratio (cohesion + compressibility) rating [6, 10]: Adequate
Flow time ([6]; lubricated mixtures of Examples 3A and 3B (AV, without AQ), N.S.F. = no spontaneous flow detected): 8.3 s
Inter-individual variability [7]: 11%
bioavailability ([7]; rat, plasma, read-out: Relative bioavailability compared to commercial formulation): 61%
SMILES: N#Cc1ccnc(N2C(=O)CC[C@H]2C(=O)N(c2cncc(F)c2)[C@H](C(=O)NC2CC(F)(F)C2)c2ccccc2Cl)c1 [Glutaric acid cocrystal of Compound 1]
Kinetics of absorption / absorption profile versus commercial formulation [7]: comparable to the one of the commercial formulation
